# The source made the active and inactive calls. No cut-off for these calls is given here.
# Columns and labels:
# [1] = biological target: T1, Amyloid-beta precursor protein (Homo sapiens, UniProt P05067); experiment: Displacement of [3H]AZD2184 from human amyloid beta(1 to 40)
# [2] = biological target: T1, Amyloid-beta precursor protein; experiment: Binding affinity to amyloid beta(1 to 40) in cortical section isolated from Alzheimer disease patient at 1 nM by autoradiographic analysis
# Mus musculus = experiment: Binding affinity to amyloid beta(1 to 40) in Tg2576 mouse plaque at 150 nmol/kg, iv after 10 mins by autoradiography analysis; format: functional, organism-based
# [3] = biological target: T1, Amyloid-beta precursor protein; experiment: Binding affinity to amyloid beta(1 to 40) in cortical section isolated from Alzheimer disease patient by autoradiographic analysis; conditions: tested as the 3H-labelled form
# T1 sequence (P05067 whole entry): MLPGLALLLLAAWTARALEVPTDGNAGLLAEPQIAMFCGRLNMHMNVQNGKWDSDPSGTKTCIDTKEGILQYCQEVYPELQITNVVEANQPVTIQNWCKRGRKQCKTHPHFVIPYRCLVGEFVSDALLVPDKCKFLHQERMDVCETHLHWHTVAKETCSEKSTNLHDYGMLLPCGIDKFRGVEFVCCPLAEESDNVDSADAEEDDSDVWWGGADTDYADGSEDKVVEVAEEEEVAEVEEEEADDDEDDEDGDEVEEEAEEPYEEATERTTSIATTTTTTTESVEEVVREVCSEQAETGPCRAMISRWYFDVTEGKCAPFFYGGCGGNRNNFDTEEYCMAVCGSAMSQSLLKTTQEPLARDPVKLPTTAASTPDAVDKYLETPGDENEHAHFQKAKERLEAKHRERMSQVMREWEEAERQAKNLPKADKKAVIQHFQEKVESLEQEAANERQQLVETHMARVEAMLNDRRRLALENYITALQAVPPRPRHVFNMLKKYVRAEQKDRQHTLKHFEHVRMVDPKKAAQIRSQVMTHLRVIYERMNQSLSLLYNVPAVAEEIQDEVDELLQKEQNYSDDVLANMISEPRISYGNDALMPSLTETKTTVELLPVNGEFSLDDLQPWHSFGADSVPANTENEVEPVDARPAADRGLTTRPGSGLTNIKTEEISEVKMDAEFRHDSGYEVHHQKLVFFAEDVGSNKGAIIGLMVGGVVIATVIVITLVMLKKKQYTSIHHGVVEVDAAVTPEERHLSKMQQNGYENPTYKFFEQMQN
IC50 [1],SMILES,further results
66 nM,Oc1ccc2nc(-c3ccc(NCCCF)nc3)sc2c1,–
124 nM,CNc1ccc(-c2nc3ccc(O)cc3s2)c(F)n1,–
30 nM,CNc1ncc(-c2cc3cc(O)ccc3o2)cc1F,–
14 nM,CNc1ccc(-c2nc3ccc(OC)cc3s2)c(F)n1,–
44 nM,CNc1ccc(-c2nc3ccc(O)cc3s2)nc1F,–
32 nM,COc1ccc2oc(-c3ccc(C(N)=O)nc3F)cc2c1,–
395 nM,Oc1ccc2nc(-c3ccc(NCCCF)nc3)oc2c1,–
24 nM,CNc1ccc(-c2cc3cc(O)ccc3o2)c(F)n1 [FLUTAFURANOL],Activity ([2]; tested as the 3H-labelled form): Active; Activity (Mus musculus; tested as the 3H-labelled form): Active
19 nM,CNc1ccc(-c2cc3cc(C(N)=O)ccc3o2)c(F)n1,–
24 nM,CNc1ccc(-c2nc3ccc(O)cc3s2)cc1F [FLUTEMETAMOL],Activity [2]: Active; Activity (Mus musculus): Active
98 nM,CNc1ncc(-c2nc3ccc(O)cc3s2)cc1F,–
32 nM,CNc1ccc(-c2cc3cc(C(N)=O)ccc3o2)nc1F,–
35 nM,CNc1ccc(-c2cc3cc(O)ccc3o2)nc1F,–
44 nM,NC(=O)c1ccc(-c2cc3cc(O)ccc3o2)c(F)n1,–
33 nM,Oc1ccc2nc(-c3ccc(NCCF)nc3)sc2c1,–
158 nM,Oc1ccc2nc(-c3ccc(NCCF)nc3)oc2c1,–
35 nM,COc1ccc2nc(-c3ccc(NCCF)nc3)oc2c1,Activity [3]: inactive
22 nM,CNc1ccc(-c2nc3ccc(O)cc3s2)cn1,–

# Source: ChEMBL document CHEMBL2046417, “Synthesis and evaluation of pyridylbenzofuran, pyridylbenzothiazole and pyridylbenzoxazole derivatives as ¹⁸F-PET imaging agents for β-amyloid plaques” (Bioorg Med Chem Lett, 2012)
